Measurements reported in PubChem BioAssay AID2060600 (Molecular Pharmacology Branch, DTP, NCI, 2025).

System: 996289-038-R-J1-PDC complex spheroid viability
Assay: Anticancer human tumor 996289-038-R-J1-PDC patient-derived colon adenocarcinoma cell line growth inhibition [CLK]
Conditions: for IC50: curve of first compound; for viability, T/C: stronger effect = lower value
Method in brief: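 Patient-derived tumor cells grown as complex spheroids with HUVEC endothelial cells and mesenchymal stem cells, treated with drug combinations. Concentrations descend in half-log steps from near clinical Cmax, or from 10 microM if Cmax unknown.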

[1] = second compound 0.0316 µM, first compound 0.0316 µM
[2] = second compound 0.0316 µM, first compound 0.1 µM
[3] = second compound 0.0316 µM, first compound 0.316 µM
[4] = second compound 0.0316 µM, first compound 1 µM
[5] = second compound 0.0316 µM, first compound 3.16 µM
[6] = second compound 0.0316 µM, first compound 10 µM
[7] = second compound 0.1 µM, first compound 0.0316 µM
[8] = second compound 0.1 µM, first compound 0.1 µM
[9] = second compound 0.1 µM, first compound 0.316 µM
[10] = second compound 0.1 µM, first compound 1 µM
[11] = second compound 0.1 µM, first compound 3.16 µM
[12] = second compound 0.1 µM, first compound 10 µM
[13] = second compound 0.316 µM, first compound 0.0316 µM
[14] = second compound 0.316 µM, first compound 0.1 µM
[15] = second compound 0.316 µM, first compound 0.316 µM
[16] = second compound 0.316 µM, first compound 1 µM
[17] = second compound 0.316 µM, first compound 3.16 µM
[18] = second compound 0.316 µM, first compound 10 µM
[19] = second compound 1 µM, first compound 0.0316 µM
[20] = second compound 1 µM, first compound 0.1 µM
[21] = second compound 1 µM, first compound 0.316 µM
[22] = second compound 1 µM, first compound 1 µM
[23] = second compound 1 µM, first compound 3.16 µM
[24] = second compound 1 µM, first compound 10 µM
[25] = second compound 3.16 µM, first compound 0.0316 µM
[26] = second compound 3.16 µM, first compound 0.1 µM
[27] = second compound 3.16 µM, first compound 0.316 µM
[28] = second compound 3.16 µM, first compound 1 µM
[29] = second compound 3.16 µM, first compound 3.16 µM
[30] = second compound 3.16 µM, first compound 10 µM
[31] = second compound 10 µM, first compound 0.0316 µM
[32] = second compound 10 µM, first compound 0.1 µM
[33] = second compound 10 µM, first compound 0.316 µM
[34] = second compound 10 µM, first compound 1 µM
[35] = second compound 10 µM, first compound 3.16 µM
[36] = second compound 10 µM, first compound 10 µM
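Also: spheroids exposed to the agents for 7 days before readout.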

Compound: CC(=O)O[C@H]1C(=O)[C@@]2(C)[C@H]([C@H](OC(=O)c3ccccc3)[C@]3(O)C[C@H](OC(=O)[C@H](O)[C@@H](NC(=O)c4ccccc4)c4ccccc4)C(C)=C1C3(C)C)[C@]1(OC(C)=O)CO[C@@H]1C[C@@H]2O + CN1CCN(c2cc(C(=O)Nc3cc4cc(-c5cnn(C)c5)ccc4cn3)ccn2)CC1
- IC50 (second compound 0.0316 µM): > 10000 nM
- IC50 (second compound 0.1 µM): 947 nM
- IC50 (second compound 0.316 µM): 50.7 nM
- IC50 (second compound 1 µM): < 31.6 nM
- IC50 (second compound 3.16 µM): < 31.6 nM
- IC50 (second compound 10 µM): < 31.6 nM
- viability, T/C [1]: 94%
- viability, T/C [2]: 80.4%
- viability, T/C [3]: 64.1%
- viability, T/C [4]: 57.5%
- viability, T/C [5]: 54.8%
- viability, T/C [6]: 54.5%
- viability, T/C [7]: 83.2%
- viability, T/C [8]: 77.6%
- viability, T/C [9]: 58.6%
- viability, T/C [10]: 50%
- viability, T/C [11]: 48.1%
- viability, T/C [12]: 48.2%
- viability, T/C [13]: 52.1%
- viability, T/C [14]: 49.1%
- viability, T/C [15]: 39.1%
- viability, T/C [16]: 34.2%
- viability, T/C [17]: 36.9%
- viability, T/C [18]: 38.3%
- viability, T/C [19]: 2.95%
- viability, T/C [20]: 3.46%
- viability, T/C [21]: 2.81%
- viability, T/C [22]: 5.29%
- viability, T/C [23]: 3.96%
- viability, T/C [24]: 3.89%
- viability, T/C [25]: 2.65%
- viability, T/C [26]: 0.84%
- viability, T/C [27]: 1.67%
- viability, T/C [28]: 2.13%
- viability, T/C [29]: 1.35%
- viability, T/C [30]: 0.72%
- viability, T/C [31]: 1.84%
- viability, T/C [32]: 1.49%
- viability, T/C [33]: 0.61%
- viability, T/C [34]: 0.57%
- viability, T/C [35]: 0.83%
- viability, T/C [36]: 2.14%

Compound: CCc1c2c(nc3ccc(O)cc13)-c1cc3c(c(=O)n1C2)COC(=O)[C@]3(O)CC + CN1CCN(c2cc(C(=O)Nc3cc4cc(-c5cnn(C)c5)ccc4cn3)ccn2)CC1
- IC50 (second compound 0.0316 µM): 126 nM
- IC50 (second compound 0.1 µM): 58.6 nM
- IC50 (second compound 0.316 µM): 16.6 nM
- IC50 (second compound 1 µM): < 3.16 nM
- IC50 (second compound 3.16 µM): < 3.16 nM
- IC50 (second compound 10 µM): < 3.16 nM
- viability, T/C (second compound 0.0316 µM, first compound 0.00316 µM): 89.7%
- viability, T/C (second compound 0.0316 µM, first compound 0.01 µM): 79.2%
- viability, T/C [1]: 57.2%
- viability, T/C [2]: 56.6%
- viability, T/C [3]: 43%
- viability, T/C [4]: 26.9%
- viability, T/C (second compound 0.1 µM, first compound 0.00316 µM): 91%
- viability, T/C (second compound 0.1 µM, first compound 0.01 µM): 70.7%
- viability, T/C [7]: 55.6%
- viability, T/C [8]: 44.8%
- viability, T/C [9]: 33.8%
- viability, T/C [10]: 19.5%
- viability, T/C (second compound 0.316 µM, first compound 0.00316 µM): 57.9%
- viability, T/C (second compound 0.316 µM, first compound 0.01 µM): 51.2%
- viability, T/C [13]: 46.2%
- viability, T/C [14]: 35%
- viability, T/C [15]: 17.7%
- viability, T/C [16]: 6.98%
- viability, T/C (second compound 1 µM, first compound 0.00316 µM): 6.14%
- viability, T/C (second compound 1 µM, first compound 0.01 µM): 5.27%
- viability, T/C [19]: 2.85%
- viability, T/C [20]: 1.7%
- viability, T/C [21]: 3.66%
- viability, T/C [22]: 5.38%
- viability, T/C (second compound 3.16 µM, first compound 0.00316 µM): 1.13%
- viability, T/C (second compound 3.16 µM, first compound 0.01 µM): 0.73%
- viability, T/C [25]: 1.24%
- viability, T/C [26]: 1.43%
- viability, T/C [27]: 3.98%
- viability, T/C [28]: 8.54%
- viability, T/C (second compound 10 µM, first compound 0.00316 µM): 1.3%
- viability, T/C (second compound 10 µM, first compound 0.01 µM): 2.51%
- viability, T/C [31]: 0.56%
- viability, T/C [32]: 0.63%
- viability, T/C [33]: 0.8%
- viability, T/C [34]: 3.96%

Compound: COc1ccc([C@@H](O)c2cc(-c3ncnc4cc(N5CCOCC5)ccc34)c(F)cc2Cl)nn1 + CN1CCN(c2cc(C(=O)Nc3cc4cc(-c5cnn(C)c5)ccc4cn3)ccn2)CC1
- IC50 (second compound 0.0316 µM): > 10000 nM
- IC50 (second compound 0.1 µM): 6690 nM
- IC50 (second compound 0.316 µM): 3190 nM
- IC50 (second compound 1 µM): < 31.6 nM
- IC50 (second compound 3.16 µM): < 31.6 nM
- IC50 (second compound 10 µM): < 31.6 nM
- viability, T/C [1]: 93.2%
- viability, T/C [2]: 94.8%
- viability, T/C [3]: 91.7%
- viability, T/C [4]: 85.7%
- viability, T/C [5]: 76.6%
- viability, T/C [6]: 50.2%
- viability, T/C [7]: 85.3%
- viability, T/C [8]: 95.1%
- viability, T/C [9]: 87.8%
- viability, T/C [10]: 79.8%
- viability, T/C [11]: 67.7%
- viability, T/C [12]: 40.8%
- viability, T/C [13]: 61.1%
- viability, T/C [14]: 64.8%
- viability, T/C [15]: 61.9%
- viability, T/C [16]: 59.8%
- viability, T/C [17]: 49.8%
- viability, T/C [18]: 27.1%
- viability, T/C [19]: 3.25%
- viability, T/C [20]: 3.83%
- viability, T/C [21]: 3.78%
- viability, T/C [22]: 4.19%
- viability, T/C [23]: 3.66%
- viability, T/C [24]: 3.61%
- viability, T/C [25]: 1.19%
- viability, T/C [26]: 0.85%
- viability, T/C [27]: 1.09%
- viability, T/C [28]: 1.26%
- viability, T/C [29]: 2.9%
- viability, T/C [30]: 2.02%
- viability, T/C [31]: 0.92%
- viability, T/C [32]: 0.41%
- viability, T/C [33]: 1.74%
- viability, T/C [34]: 0.52%
- viability, T/C [35]: 0.52%
- viability, T/C [36]: 0.65%

Compound: COc1cccc2c1C(=O)c1c(O)c3c(c(O)c1C2=O)CC(O)(C(=O)CO)CC3OC1CC(N)C(O)C(C)O1 (stereo not given) + CN1CCN(c2cc(C(=O)Nc3cc4cc(-c5cnn(C)c5)ccc4cn3)ccn2)CC1
- IC50 (second compound 0.0316 µM): 1400 nM
- IC50 (second compound 0.1 µM): 775 nM
- IC50 (second compound 0.316 µM): 218 nM
- IC50 (second compound 1 µM): < 31.6 nM
- IC50 (second compound 3.16 µM): < 31.6 nM
- IC50 (second compound 10 µM): < 31.6 nM
- viability, T/C [1]: 89.6%
- viability, T/C [2]: 91.8%
- viability, T/C [3]: 71.9%
- viability, T/C [4]: 52.5%
- viability, T/C [5]: 45.2%
- viability, T/C [6]: 33.8%
- viability, T/C [7]: 89.3%
- viability, T/C [8]: 83.5%
- viability, T/C [9]: 60.2%
- viability, T/C [10]: 44.5%
- viability, T/C [11]: 40.6%
- viability, T/C [12]: 26.3%
- viability, T/C [13]: 67.8%
- viability, T/C [14]: 56.9%
- viability, T/C [15]: 42.1%
- viability, T/C [16]: 38.6%
- viability, T/C [17]: 33.6%
- viability, T/C [18]: 16.1%
- viability, T/C [19]: 4.05%
- viability, T/C [20]: 4.33%
- viability, T/C [21]: 4.01%
- viability, T/C [22]: 3.89%
- viability, T/C [23]: 4.94%
- viability, T/C [24]: 7.17%
- viability, T/C [25]: 0.81%
- viability, T/C [26]: 1.53%
- viability, T/C [27]: 2.41%
- viability, T/C [28]: 2.9%
- viability, T/C [29]: 5.23%
- viability, T/C [30]: 5.47%
- viability, T/C [31]: 1.39%
- viability, T/C [32]: 0.35%
- viability, T/C [33]: 0.5%
- viability, T/C [34]: 0.45%
- viability, T/C [35]: 0.53%
- viability, T/C [36]: 0.61%

Compound: CCCS(=O)(=O)Nc1ccc(F)c(C(=O)c2c[nH]c3ncc(-c4ccc(Cl)cc4)cc23)c1F + CNC(=O)c1ccc(Nc2nc(OC3CCCC3)c3c(-c4ccc5nc(C)oc5c4)c[nH]c3n2)c(OC)c1
- IC50 (second compound 0.0316 µM): > 10000 nM
- IC50 (second compound 0.1 µM): > 10000 nM
- IC50 (second compound 0.316 µM): 9360 nM
- IC50 (second compound 1 µM): 5680 nM
- IC50 (second compound 3.16 µM): 4680 nM
- IC50 (second compound 10 µM): 4510 nM
- viability, T/C [1]: 125%
- viability, T/C [2]: 105%
- viability, T/C [3]: 120%
- viability, T/C [4]: 131%
- viability, T/C [5]: 124%
- viability, T/C [6]: 83.4%
- viability, T/C [7]: 116%
- viability, T/C [8]: 133%
- viability, T/C [9]: 124%
- viability, T/C [10]: 118%
- viability, T/C [11]: 119%
- viability, T/C [12]: 76.7%
- viability, T/C [13]: 81.2%
- viability, T/C [14]: 84.5%
- viability, T/C [15]: 82.8%
- viability, T/C [16]: 84.8%
- viability, T/C [17]: 82.7%
- viability, T/C [18]: 48%
- viability, T/C [19]: 73.2%
- viability, T/C [20]: 70%
- viability, T/C [21]: 64.9%
- viability, T/C [22]: 70.6%
- viability, T/C [23]: 64.8%
- viability, T/C [24]: 35.6%
- viability, T/C [25]: 63.8%
- viability, T/C [26]: 67.5%
- viability, T/C [27]: 64.1%
- viability, T/C [28]: 68.1%
- viability, T/C [29]: 58.4%
- viability, T/C [30]: 31.8%
- viability, T/C [31]: 62.9%
- viability, T/C [32]: 60.2%
- viability, T/C [33]: 59.8%
- viability, T/C [34]: 66.9%
- viability, T/C [35]: 60.3%
- viability, T/C [36]: 26.1%
